System: degenerating neurons (FJB-positive cells) in cortical contusion margin
Test: Neuronal degeneration, FluoroJade B (FJB) staining
Type: in vivo, rat
Conditions: single-dose 30 mg kg^-1 i.p., 1 day post-injury, P<0.05
Protocol: A previously described CCI injury procedure was utilized (Chen et al., 2003). Male Sprague-Dawley rats, which have body weight of 250-300 g, were anaesthetized with sodium pentobarbital (i.p.; 50 mgkg^−1; Rhone Merieux, Harlow, UK) and placed in a stereotaxic frame. A 5-mm craniotomy was performed over the left parietal cortex, centered on the coronal suture and 3 mm lateral to the sagittal suture. Considerable care was taken to avoid injury to the underlying dura. Injury was made using a pneumatic piston with a rounded metal tip (2.5 mm diameter) that was angled 22.5° C. to the vertical so that the tip was perpendicular with the brain surface at the centre of the craniotomy. A velocity of 4 ms^−1 and a deformation depth 2 mm below the dura were used. The bone flap was immediately replaced and sealed, and the scalp was closed with sutures. Body temperature was monitored throughout the surgery by a rectal probe; temperature was maintained at 37.0±0.5° C. using a heated pad. […] Testing after injury was as follows: (1) real-time quantitative RT-PCR analysis for TNF-α, IL-1β and IL-6 mRNA expression at 6 h post-injury (n=7 for each group); (2) FluoroJade B (FJB) staining, TNF-α, IL-1β and IL-6 immunohistochemistry, as well as ELISA at 24 h post-injury to assess degenerative neurons and to determine cytokine expression (n=7 for each group). […]

## O=c1cc(-c2ccccc2)oc2cc(O)c(O)c(O)c12 [baicalein]
  reduction of the number of FJB-positive cells versus vehicle: 31%

Source: patent publication US20100222421A1, “Usage of Baicalein in the Preparation of a Pharmaceutical Composition for the Treatment of Traumatic Brain Injury” (National Defense Medical Center, priority 2009, published 2010)
